# Experimental data from US20090069623A1, “METHODS AND COMPOSITIONS FOR TREATMENT OR PREVENTION OF RADIATION-INDUCED FIBROSIS” (Virginia Commonwealth University Intellectual Property …, priority 2007, published 2009).
# What was measured:
# Type in all cases: cell-based, human
# [1] = system: CTGF, fibronectin; assay: Western blot of irradiated HFL-1 cells treated with HMG-CoA inhibitors; conditions: 5 Gy, three days, FIG. 8C; for amount of CTGF detected in the cell lysate (CL): HMG-CoA inhibitor pretreatment 6 hours
# Procedure: For statin treatment experiments, cells were grown overnight in 35 mm plates (6-well plates were also used in some studies) to form a 75-80% confluent monolayer. The cells were then washed with PBS, and the media was changed to SFM (800 μL).
# (§1) Harvesting Culture Media and Cell Lystates. For analysis of extracellular CTGF, fibronectin, and α-tubulin, cell culture media was collected, centrifuged to remove cellular debris, aliquoted, and frozen at −70° C. until ready for use. For analysis of intracellular CTGF, fibronectin, and α-tubulin, cell lysates were harvested using 200 μL of HBSST lysis buffer (HBSS containing 1 mM MgSO4, 1 mM CaCl2, 4 mM NaHCO3, 0.5% Triton X-100, protease inhibitor cocktail). Cellular debris was removed by centrifugation.
# Western blot analysis of HFL-1 whole cell proteins. […] Primary antibodies for CTGF and fibronectin were diluted at 1:600 and were incubated at 4° C. overnight with shaking. Primary antibodies for α-tubulin were diluted at 1:4,000 and were incubated at 4° C. overnight with shaking. Corresponding secondary antibodies were diluted at 1:6,000 and were incubated at room temperature for 1 hour with shaking. After washing the blot, the antibodies were detected by the enhanced chemiluminescence method (PerkinElmer Life Sciences Inc.).
# Cells were harvested, and cell lysates were separated by SDS-PAGE. The separated proteins were then transferred to nitrocellulose, and Western immunoblotting was performed with antibodies specific for CTGF, fibronectin, and α-tubulin. […] As a control for protein loading, α-tubulin expression in HFL-1 cells was also determined.
# Cells were harvested, and cell lysates were separated by SDS-PAGE. The separated proteins were then transferred to nitrocellulose, and Western immunoblotting was performed with antibodies specific for CTGF, fibronectin, and α-tubulin. FIG. 8C is a Western blot of HFL-1 cells exposed to radiation and treated with HMG-CoA inhibitors.
# [2] = system: CTGF, fibronectin (FN), collagen type IV (Col IV) mRNA; assay: RT-PCR of mRNA expression in HFL-1 cells treated with TGF-β1; conditions: 0 to 25 ng/ml TGF-β1, six hour treatment, FIG. 5A
# Procedure: (§2) Cell Culture and Treatment. Normal human fetal lung fibroblasts (HFL-1) were purchased from the American Type Culture Collection (ATCC Number: CCL-153) and cultured in Ham's F12K medium (American Type Culture Collection) supplemented with 2 mM L-glutamine adjusted to contain 1.5 g/L sodium bicarbonate and 10% fetal bovine serum. Cells were maintained in humidified 5% CO2 at 37° C. Human dermal fibroblasts (HDF), derived from the dermis of normal human adult skin, were purchased from Invitrogen, Inc. and cultured in Medium-106 (Invitrogen, Inc., Catalogue No. M-106-500) containing LSGS Kit (Invitrogen, Inc., Catalogue No. S-003-K) prior to use. After reaching 75-80% confluence, the medium was changed to serum free medium (SFM) for irradiation with different dose 1Gy, 2.5Gy, 5Gy, 7.5Gy and 10 Gy by using ^137Se. Alternatively, cells were treated with 5 ng/ml TGF-β1 (Sigma-Aldrich, Inc., Catalogue No. T7039) to stimulate CTGF production. The cells were then kept for 3 days in humidified 5% CO2 at 37° C. and subjected to Western immunoblot.^1 ^1What are the culture conditions (e.g., media) for M12 cells used in FIG. 3? […]
# Normal human fetal lung fibroblasts (HFL-1) were treated with varying concentrations of TGF-β1, ranging from 0 ng/ml to 25 ng/ml. […] FIG. 5A is an agarose gel of RT-PCR products detected in HFL-1 cells following a six (6) hour treatment with TGF-β1.
# [3] = system: CTGF, fibronectin; assay: Western blot of HFL-1 cells treated with TGF-β1
# Procedure: Cell Culture and Treatment. Normal human fetal lung fibroblasts (HFL-1) were purchased from the American Type Culture Collection (ATCC Number: CCL-153) and cultured in Ham's F12K medium (American Type Culture Collection) supplemented with 2 mM L-glutamine adjusted to contain 1.5 g/L sodium bicarbonate and 10% fetal bovine serum. Cells were maintained in humidified 5% CO2 at 37° C. Human dermal fibroblasts (HDF), derived from the dermis of normal human adult skin, were purchased from Invitrogen, Inc. and cultured in Medium-106 (Invitrogen, Inc., Catalogue No. M-106-500) containing LSGS Kit (Invitrogen, Inc., Catalogue No. S-003-K) prior to use. After reaching 75-80% confluence, the medium was changed to serum free medium (SFM) for irradiation with different dose 1Gy, 2.5Gy, 5Gy, 7.5Gy and 10 Gy by using ^137Se. Alternatively, cells were treated with 5 ng/ml TGF-β1 (Sigma-Aldrich, Inc., Catalogue No. T7039) to stimulate CTGF production. […] 3?
# as §1
# Western blot analysis of HFL-1 whole cell proteins. The primary antibodies that selectively recognized CTGF (sc-14939) and fibronectin (sc-9068) were purchased from Santa Cruz Biotechnology, Inc., and primary antibodies that selectively recognized α-tubulin (T 9026) were purchased from Sigma. […] After washing the blot, the antibodies were detected by the enhanced chemiluminescence method (PerkinElmer Life Sciences Inc.).
# Protein expression in HFL-1 cells treated with TGF-β1 was also determined. […] As a control for protein loading, α-tubulin expression in HFL-1 cells was also determined.
# [4] = system: CTGF, fibronectin (FN), collagen type IV (Col IV) mRNA; assay: RT-PCR of mRNA expression in HDF cells treated with TGF-β1; conditions: 0 to 25 ng/ml TGF-β1, FIG. 9A
# Procedure: as §2
# Human dermal fibroblasts (HDF) were treated with varying concentrations of TGF-β1, ranging from 0 ng/ml to 25 ng/ml, […]. […] FIG. 9A is an agarose gel of RT-PCR products detected in HDF cells following a six (6) hour treatment with TGF-β1.
# [5] = system: CTGF, fibronectin; assay: Western blot of HDF cells treated with TGF-β1; conditions: three days after TGF-β1, FIG. 9B
# Procedure: Cell Culture and Treatment. Normal human fetal lung fibroblasts (HFL-1) were purchased from the American Type Culture Collection (ATCC Number: CCL-153) and cultured in Ham's F12K medium (American Type Culture Collection) supplemented with 2 mM L-glutamine adjusted to contain 1.5 g/L sodium bicarbonate and 10% fetal bovine serum. Cells were maintained in humidified 5% CO2 at 37° C. Human dermal fibroblasts (HDF), derived from the dermis of normal human adult skin, were purchased from Invitrogen, Inc. and cultured in Medium-106 (Invitrogen, Inc., Catalogue No. M-106-500) containing LSGS Kit (Invitrogen, Inc., Catalogue No. S-003-K) prior to use. After reaching 75-80% confluence, the medium was changed to serum free medium (SFM) for irradiation with different dose 1Gy, 2.5Gy, 5Gy, 7.5Gy and 10 Gy by using ^137Se. […]
# Harvesting Culture Media and Cell Lystates. For analysis of extracellular CTGF, fibronectin, and α-tubulin, cell culture media was collected, centrifuged to remove cellular debris, aliquoted, and frozen at −70° C. until ready for use. […]
# Western blot analysis of HFL-1 whole cell proteins. […] After washing the blot, the antibodies were detected by the enhanced chemiluminescence method (PerkinElmer Life Sciences Inc.).
# Protein expression in HDF cells treated with TGF-β1 was also determined. […] As a control for protein loading, α-tubulin expression in HFL-1 cells was also determined.
# [6] = three days after TGF-β1, FIG. 5B
compound,measurement,setting,value
"CC[C@H](C)C(=O)O[C@H]1C[C@H](O)C=C2C=C[C@H](C)[C@H](CC[C@@H](O)C[C@@H](O)CC(=O)O)[C@H]21 [pravastatin, (βR,δR,1S,2S,6S,8S,8aR)-1,2,6,7,8,8a-hexahydro-β,δ,-6-trihydroxy-2-methyl-8-[(2S)-2-methyl-1-oxobutoxy]-1-naphthalene-heptanoic acid]",amount of CTGF detected in the cell lysate (CL),[1],decreased as the amount of HMG-CoA inhibitor increased
"(2S)-2-methyl-butanoic acid(1S,3R,7S,8S,8aR)-1,2,3,7,8,8a-hexahydro-3,7-dimethyl-8-[2-[(2R,4R)-tetrahydro-4-hydroxy-6-oxo-2H-pyran-2-yl]ethyl]-1-na-phthalenylester [mevinolin]",amount of CTGF detected in the cell lysate (CL),[1],decreased as the amount of HMG-CoA inhibitor increased
"CC[C@H](C)C(=O)O[C@H]1CCC=C2C=C[C@H](C)[C@H](CC[C@@H]3C[C@@H](O)CC(=O)O3)C21 (stereo partly drawn) [mevastatin, (2S)-2-methyl-butanoic acid(1S,7S,8S,8aR)-1,2,3,7,8,8a-hexahydro-7-methyl-8-[2-[(2R,4R)-tetrahydro-4-hydroxy-6-oxo-2H-pyran-2-yl]ethyl]-1-naphthale-nylester]",amount of CTGF detected in the cell lysate (CL),[1],decreased as the amount of HMG-CoA inhibitor increased
CCOP(=O)(OCC)C(=Cc1cc(C(C)(C)C)c(O)c(C(C)(C)C)c1)P(=O)(OCC)OCC [SR12813],amount of CTGF detected in the cell lysate (CL),[1],decreased as the amount of HMG-CoA inhibitor increased
same,inhibitory effects on radiation-induced CTGF relative to other HMG-CoA inhibitors,[1]; pretreatment 6 hours,"reduced relative to the inhibitory effects of simvastatin, pravastatin, lovastatin, mevinolin, and mevastatin"
"TGF-β1: Cytokine used to stimulate CTGF production (Sigma-Aldrich, Inc., Catalogue No. T7039)","expression of CTGF, FN, and Col IV mRNA",[2],increased as the concentration of TGF-β1 increased
same,CTGF expression,"[3]; 5 ng/ml TGF-β1 for 4 days, FIG. 1",increased
same,amount of CTGF in culture medium (CM) and cell lysate (CL),[3]; [6],increased as the amount of TGF-β1 increased
same,fibronectin protein expression,[3]; [6],same increase in protein expression
same,"expression of CTGF, FN, and Col IV mRNA",[4],increased as the concentration of TGF-β1 increased
same,amount of CTGF in culture medium (CM) and cell lysate (CL),[5],increased as the amount of TGF-β1 increased
same,fibronectin protein expression,[5],same increase in protein expression
